Values of other authors in patent US11823773B2, “Nant cancer vaccine strategies” (Nant Holdings IP, LLC, priority 2018, dated 2023).

## CC(C)(C)c1nc(-c2cccc(NS(=O)(=O)c3c(F)cccc3F)c2F)c(-c2ccnc(N)n2)s1 [Dabrafenib]
Advanced melanoma; human, in vivo
  PFS compared to dacarbazine: improvement in PFS

## O=C(c1ccc(F)c(F)c1Nc1ccc(I)cc1F)N1CC(O)([C@@H]2CCCCN2)C1 [cobimetinib]
Advanced melanoma; in combination with vemurafenib
  PFS over vemurafenib treatment alone: significant increase in PFS

## rituximab: anti-CD20 antibody
CD20-positive NHL; rituximab refractory (RR) patients, reasonable estimate, no trial data reported
  response rate to single agent retreatment: < 5%
CD20-positive NHL; rituximab sensitive (RS) patients
  patients responding to retreatment: approximately 40%
